Laboratory results published in patent US12227501B2, “3-amino-2-[2-(acylamino)pyridin-4-yl]-1,5,6,7-tetrahydro-4h-pyrrolo[3,2-c]pyridin-4-one as CSNK1 inhibitors” (Bayer Aktiengesellschaft, priority 2019, dated 2025).
Like-named read-outs stand apart in the source and are kept apart here.

Columns and labels:
Format in all cases: biochemical
human CSNK1A1 [1] = target: T1, human CSNK1A1 (Homo sapiens (Human), UniProt P48729); test: CSNK1A1 High ATP Assay (ADP-Glo, 1 mM ATP); details: read-out: CSNK1A1 high ATP assay IC50 [mol/l] (median)
Method: CSNK1A1-inhibitory activity of compounds of the present invention in presence of 1 mM adenosine-tri-phosphate (ATP) was quantified employing the CSNK1A1-high-ATP-assay as described in the following paragraphs. In essence, the enzyme activity is measured by quantification of the adenosine-di-phosphate (ADP), which is generated as a co-product of the enzyme reaction, via the “ADP-Glo™ Kinase Assay” kit from the company Promega. This detection system works as follows: In a first step the ATP not consumed in the kinase reaction is quantitatively converted to cAMP employing an adenylate cyclase (“ADP-Glo-reagent”), then the adenylate cyclase is stopped and the ADP generated in the kinase reaction converted to ATP which generates in a luciferase-based reaction a glow-luminescence signal (“Kinase Detection Reagent”).
Recombinant fusion protein of N-terminal Glutathion-S-Transferase (GST) and full-length human CSNK1A1, expressed by baculovirus infected insect cells and purified via Glutathion affinity chromatography, was purchased from Life Technologies (product no. PV4174) and used as enzyme. As substrate for the kinase reaction the biotinylated peptide biotin-Ahx-KRRRAL-pS-VASLPGL (C-terminus in amide form) was used which can be purchased e.g. from the company Biosyntan (Berlin-Buch, Germany).
For the assay 50 nl of a 100 fold concentrated solution of the test compound in DMSO was pipetted into a white low volume 384-well microtiter plate (Greiner Bio-One, Frickenhausen, Germany), 2 μL of a solution of CSNK1A1 in aqueous assay buffer [50 mM HEPES pH 7.5, 10% (v/v) glycerol, 10 mM MgCl2, 50 mM NaCl, 1 mM dithiothreitol, 0.01% (w/v) bovine serum albumin, 0.01% (v/v) Triton X-100] were added and the mixture was incubated for 15 min at 22° C. to allow pre-binding of the test compounds to the enzyme before the start of the kinase reaction. […] The concentration of CSNK1A1 was adjusted depending of the activity of the enzyme lot and was chosen appropriate to have the assay in the linear range, a typical concentration is about 0.4 ng/μL. The reaction was stopped by the addition of 2.5 μL of “ADP-Glo-reagent” (1:1.5 fold diluted with water) and the resulting mixture was incubated at 22° C. for 1 h to convert the ATP not consumed in the kinase reaction completely […]. Subsequently 2.5 μL of the “kinase detection reagent” (1.2 fold more concentrated than recommended by the producer) were added, the resulting mixture was incubated at 22° C. for 1 h and then the luminescence measured with a suitable measurement instrument (e.g. Viewlux™ from Perkin-Elmer). The amount of emitted light was taken as a measure for the amount of ADP generated and thereby for the activity of the CSNK1A1.

human CSNK1D = human CSNK1D (Homo sapiens (Human), UniProt P48730); test: CSNK1D Assay (ADP-Glo, 1 μM ATP); details: read-out: CSNK1D IC50 [mol/l] (median)
Method: CSNK1 D-inhibitory activity of compounds of the present invention in presence of 1 μM adenosine-tri-phosphate (ATP) was quantified employing the CSNK1D assay as described in the following paragraphs. In essence, the enzyme activity is measured by quantification of the adenosine-di-phosphate (ADP), which is generated as a co-product of the enzyme reaction, via the “ADP-Glo™ Kinase Assay” kit from the company Promega. This detection system works as follows: In a first step the ATP not consumed in the kinase reaction is quantitatively converted to cAMP employing an adenylate cyclase (“ADP-Glo-reagent”), then the adenylate cyclase is stopped and the ADP generated in the kinase reaction converted to ATP which generates in a luciferase-based reaction a glow-luminescence signal (“Kinase Detection Reagent”). Recombinant fusion protein of N-terminal Glutathion-S-Transferase (GST) and full-length human CSNK1D, expressed by baculovirus infected insect cells and purified via Glutathion affinity chromatography, was purchased from Life Technologies (product no. PV3665) and used as enzyme. As substrate for the kinase reaction the biotinylated peptide Btn-Ahx-[…] (C-terminus in amide form) was used which can be purchased e.g. from the company Biosyntan (Berlin-Buch, Germany).
For the assay 50 nl of a 100 fold concentrated solution of the test compound in DMSO was pipetted into a white 1536-well microtiter plate (Greiner Bio-One, Frickenhausen, Germany), 2 μL of a solution of CSNK1D in aqueous assay buffer [50 mM HEPES pH 7.5, 10% (v/v) glycerol, 10 mM MgCl2, 50 mM NaCl, 1 mM dithiothreitol, 0.01% (w/v) bovine serum albumin, 0.01% (v/v) Triton X-100] were added and the mixture was incubated for 15 min at 22° C. to allow pre-binding of the test compounds to the enzyme before the start of the kinase reaction. […] The concentration of CSNK1 D was adjusted depending of the activity of the enzyme lot and was chosen appropriate to have the assay in the linear range, a typical concentration is about 0.5 ng/μL. The reaction was stopped by the addition of 2.5 μL of “ADP-Glo-reagent” (1:1.5 fold diluted with water) and the resulting mixture was incubated at 22° C. for 1 h to convert the ATP not consumed in the kinase reaction completely […]. Subsequently 2.5 μL of the “kinase detection reagent” (1.2 fold more concentrated than recommended by the producer) were added, the resulting mixture was incubated at 22° C. for 1 h and then the luminescence measured with a suitable measurement instrument (e.g. Viewlux™ from Perkin-Elmer). The amount of emitted light was taken as a measure for the amount of ADP generated and thereby for the activity of the CSNK1D.

[2] = target: wild-type Epidermal Growth Factor Receptor (EGFR) (Homo sapiens (Human), UniProt P00533); test: WT-EGFR Kinase Assay (TR-FRET, 2 mM ATP)
human CSNK1A1 [3] = target: T1, human CSNK1A1; test: CSNK1A1 Assay 2 (ADP-Glo, 1 μM ATP); details: substrate biotin-Ahx-KRRRAL-pS-VASLPGL, read-out: CSNK1A1 Assay 2 IC50 [mol/l] (median)
Method: CSNK1A1-inhibitory activity of compounds of the present invention in presence of 1 μM adenosine-tri-phosphate (ATP) was quantified employing the CSNK1A1 assay as described in the following paragraphs. In essence, the enzyme activity is measured by quantification of the adenosine-di-phosphate (ADP), which is generated as a co-product of the enzyme reaction, via the “ADP-Glo™ Kinase Assay” kit from the company Promega. This detection system works as follows: In a first step the ATP not consumed in the kinase reaction is quantitatively converted to cAMP employing an adenylate cyclase (“ADP-Glo-reagent”), then the adenylate cyclase is stopped and the ADP generated in the kinase reaction converted to ATP which generates in a luciferase-based reaction a glow-luminescence signal (“Kinase Detection Reagent”). Recombinant fusion protein of N-terminal Glutathion-S-Transferase (GST) and full-length human CSNK1A1, expressed by baculovirus infected insect cells and purified via Glutathion affinity chromatography, was purchased from Life Technologies (product no. PV4174) and used as enzyme. As substrate for the kinase reaction the biotinylated peptide biotin-Ahx-KRRRAL-pS-VASLPGL (C-terminus in amide form) was used which can be purchased e.g. from the company Biosyntan (Berlin-Buch, Germany).
For the assay 50 nl of a 100 fold concentrated solution of the test compound in DMSO was pipetted into a white 1536-well microtiter plate (Greiner Bio-One, Frickenhausen, Germany), 2 μL of a solution of CSNK1A1 in aqueous assay buffer [50 mM HEPES pH 7.5, 10% (v/v) glycerol, 10 mM MgCl2, 50 mM NaCl, 1 mM dithiothreitol, 0.01% (w/v) bovine serum albumin, 0.01% (v/v) Triton X-100] were added and the mixture was incubated for 15 min at 22° C. to allow pre-binding of the test compounds to the enzyme before the start of the kinase reaction. […] The concentration of CSNK1A1 was adjusted depending of the activity of the enzyme lot and was chosen appropriate to have the assay in the linear range, a typical concentrations are about 0.0375 ng/μL. The reaction was stopped by the addition of 2.5 μL of “ADP-Glo-reagent” (1:1.5 fold diluted with water) and the resulting mixture was incubated at 22° C. for 1 h to convert the ATP not consumed in the kinase reaction completely […]. Subsequently 2.5 μL of the “kinase detection reagent” (1.2 fold more concentrated than recommended by the producer) were added, the resulting mixture was incubated at 22° C. for 1 h and then the luminescence measured with a suitable measurement instrument (e.g. Viewlux™ from Perkin-Elmer). The amount of emitted light was taken as a measure for the amount of ADP generated and thereby for the activity of the CSNK1A1.

[4] = read-out: EGFR Wildtyp- 2 mM ATP IC50 [mol/l] (median)
[5] = EGFR Wildtyp- 2 mM ATP IC50 [mol/l] (median)

T1 sequence (P48729 whole entry): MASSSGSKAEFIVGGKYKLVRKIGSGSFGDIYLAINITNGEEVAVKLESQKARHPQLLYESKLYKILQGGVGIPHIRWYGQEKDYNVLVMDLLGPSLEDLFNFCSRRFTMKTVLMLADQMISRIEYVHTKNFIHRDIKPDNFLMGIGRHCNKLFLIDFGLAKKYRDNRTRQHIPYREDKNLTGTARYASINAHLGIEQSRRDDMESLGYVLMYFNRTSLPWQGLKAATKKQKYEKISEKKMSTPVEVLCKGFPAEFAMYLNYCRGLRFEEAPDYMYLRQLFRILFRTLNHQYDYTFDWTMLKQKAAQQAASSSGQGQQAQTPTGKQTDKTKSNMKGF
wild-type Epidermal Growth Factor Receptor (EGFR), sequence (P00533 669-1210): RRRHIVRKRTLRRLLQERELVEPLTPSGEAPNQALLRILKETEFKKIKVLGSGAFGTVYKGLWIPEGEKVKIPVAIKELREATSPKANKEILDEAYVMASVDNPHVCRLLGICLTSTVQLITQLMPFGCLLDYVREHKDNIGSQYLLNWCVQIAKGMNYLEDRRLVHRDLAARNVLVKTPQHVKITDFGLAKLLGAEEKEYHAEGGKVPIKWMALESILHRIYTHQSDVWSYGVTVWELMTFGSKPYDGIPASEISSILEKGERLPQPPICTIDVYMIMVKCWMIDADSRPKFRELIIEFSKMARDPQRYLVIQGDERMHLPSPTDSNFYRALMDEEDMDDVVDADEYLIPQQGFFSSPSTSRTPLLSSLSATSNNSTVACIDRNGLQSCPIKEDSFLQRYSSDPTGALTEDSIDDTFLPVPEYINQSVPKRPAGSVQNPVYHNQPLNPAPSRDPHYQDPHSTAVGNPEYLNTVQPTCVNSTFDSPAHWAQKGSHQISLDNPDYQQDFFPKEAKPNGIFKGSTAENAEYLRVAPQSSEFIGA
human CSNK1D, sequence (P48730 whole entry): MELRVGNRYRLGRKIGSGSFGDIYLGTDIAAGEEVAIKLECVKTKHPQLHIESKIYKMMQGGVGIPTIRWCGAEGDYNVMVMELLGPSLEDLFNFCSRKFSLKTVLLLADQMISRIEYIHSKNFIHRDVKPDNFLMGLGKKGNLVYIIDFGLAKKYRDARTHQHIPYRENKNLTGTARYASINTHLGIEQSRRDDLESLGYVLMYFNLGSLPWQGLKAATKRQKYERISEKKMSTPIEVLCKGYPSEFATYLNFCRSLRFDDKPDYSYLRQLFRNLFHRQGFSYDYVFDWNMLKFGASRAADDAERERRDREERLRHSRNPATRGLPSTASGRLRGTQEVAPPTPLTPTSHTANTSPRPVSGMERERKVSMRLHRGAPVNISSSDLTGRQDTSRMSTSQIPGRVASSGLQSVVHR

How did the IC50 (human CSNK1A1 [1]) turn out when `CN1CCc2[nH]c(-c3ccnc(NC(=O)Cc4ccccn4)c3)c(Nc3ccccc3)c2C1=O` [Example 115, N-[4-(3-anilino-5-methyl-4-oxo-4,5,6,7-tetrahydro-1H-pyrrolo[3,2-c]pyridin-2-yl)pyridin-2-yl]-2-(pyridin-2-yl)acetamide] was run?
The IC50 was 0.248 µM.

What about the IC50 (human CSNK1D) of the same compound?
Its IC50 is 0.00509 µM.

What about the IC50 [2, 4] of the same compound?
Its IC50 is 3.67 µM.

What about the IC50 (human CSNK1A1 [3]) of the same compound?
The IC50 was 0.00241 µM.

With `CC1(C)Cc2[nH]c(-c3ccnc(NC(=O)C(CC(F)F)c4ccc(F)cc4)c3)c(Nc3cccc(F)c3Cl)c2C(=O)N1` (single isomer, unassigned; (+)) [Example 111, (+)-N-{4-[3-(2-chloro-3-fluoroanilino)-6,6-dimethyl-4-oxo-4,5,6,7-tetrahydro-1H-pyrrolo[3,2-c]pyridin-2-yl]pyridin-2-yl}-4,4-difluoro-2-(4-fluorophenyl)butanamide] as the compound, how does the IC50 (human CSNK1A1 [1]) read?
Its IC50 is 0.135 µM.

What about the IC50 (human CSNK1D) of the same compound?
Its IC50 is 0.0102 µM.

What about the IC50 [2, 5] of the same compound?
Its IC50 is 1.14 µM.

And the IC50 (human CSNK1A1 [3])?
Its IC50 is 0.0109 µM.

What does the source list for `CC(C(=O)Nc1cc(-c2[nH]c3c(c2Nc2ccccc2)C(=O)N(C)CC3)ccn1)c1ccncc1` (single isomer, unassigned) [Example 74, N-[4-(3-anilino-5-methyl-4-oxo-4,5,6,7-tetrahydro-1H-pyrrolo[3,2-c]pyridin-2-yl)pyridin-2-yl]-2-(pyridin-4-yl)propanamide]?
IC50 (human CSNK1A1 [1]): 0.599 µM; IC50 (human CSNK1D): 0.0551 µM; IC50 [2, 5]: > 20 µM; IC50 (human CSNK1A1 [3]): 0.0339 µM

For `CN1CCc2[nH]c(-c3ccnc(NC(=O)C(CC(F)F)c4ccc(F)cc4)c3)c(Nc3ccccc3)c2C1=O` (single isomer, unassigned; (-)) [Example 62, (−)-N-[4-(3-anilino-5-methyl-4-oxo-4,5,6,7-tetrahydro-1H-pyrrolo[3,2-c]pyridin-2-yl)pyridin-2-yl]-4,4-difluoro-2-(4-fluorophenyl)butanamide], which IC50 (human CSNK1A1 [1]) is on record?
The IC50 was 1.5 µM.

And the IC50 (human CSNK1D)?
The IC50 was 0.0297 µM.

And the IC50 [2, 5]?
The IC50 was > 20 µM.

What about the IC50 (human CSNK1A1 [3]) of the same compound?
Its IC50 is 0.021 µM.

What does the source list for `CC1Cc2[nH]c(-c3ccnc(NC(=O)C(CC(F)F)c4ccc(F)cc4)c3)c(Nc3ccccc3F)c2C(=O)N1C` (single isomer, unassigned; (-)) [Example 107, (−)-4,4-difluoro-N-{4-[3-(2-fluoroanilino)-5,6-dimethyl-4-oxo-4,5,6,7-tetrahydro-1H-pyrrolo[3,2-c]pyridin-2-yl]pyridin-2-yl}-2-(4-fluorophenyl)butanamide]?
IC50 (human CSNK1A1 [1]): 3.16 µM; IC50 (human CSNK1D): 0.0592 µM; IC50 [2, 4]: > 20 µM; IC50 (human CSNK1A1 [3]): 0.0457 µM

What does the source list for `CN1CCc2[nH]c(-c3ccnc(NC(=O)Cc4cccc(C(F)(F)F)c4)c3)c(Nc3ccccc3)c2C1=O` [Example 116, N-[4-(3-anilino-5-methyl-4-oxo-4,5,6,7-tetrahydro-1H-pyrrolo[3,2-c]pyridin-2-yl)pyridin-2-yl]-2-[3-(trifluoromethyl)phenyl]acetamide]?
IC50 (human CSNK1A1 [1]): 0.453 µM; IC50 (human CSNK1D): 0.0544 µM; IC50 [2, 4]: > 20 µM; IC50 (human CSNK1A1 [3]): 0.0186 µM

For `CC1Cc2[nH]c(-c3ccnc(NC(=O)Cc4ccncc4)c3)c(Nc3ccccc3)c2C(=O)N1C` (single isomer, unassigned; (-)) [Example 99, (−)-N-{4-[(6S*)-3-anilino-5,6-dimethyl-4-oxo-4,5,6,7-tetrahydro-1H-pyrrolo[3,2-c]pyridin-2-yl]pyridin-2-yl}-2-(pyridin-4-yl)acetamide], which IC50 (human CSNK1A1 [1]) is on record?
The IC50 was 0.0259 µM.

And the IC50 (human CSNK1D)?
The IC50 was 0.0051 µM.

And the IC50 [2, 5]?
Its IC50 is 0.329 µM.

And the IC50 (human CSNK1A1 [3])?
Its IC50 is 0.00378 µM.

Which IC50 (human CSNK1A1 [1]) does the source give for `CN1CCc2[nH]c(-c3ccnc(NC(=O)Cc4ccc(F)cc4F)c3)c(Nc3ccccc3)c2C1=O` [Example 82, N-[4-(3-anilino-5-methyl-4-oxo-4,5,6,7-tetrahydro-1H-pyrrolo[3,2-c]pyridin-2-yl)pyridin-2-yl]-2-(2,4-difluorophenyl)acetamide] here?
The IC50 was 0.162 µM.

What about the IC50 (human CSNK1D) of the same compound?
The IC50 was 0.00552 µM.

And the IC50 [2, 4]?
The IC50 was 1.15 µM.

And the IC50 (human CSNK1A1 [3])?
The IC50 was 0.00226 µM.

With `CC1Cc2[nH]c(-c3ccnc(NC(=O)C(CC(F)F)c4ccc(F)cc4)c3)c(Nc3ccccc3F)c2C(=O)N1C` (single isomer, unassigned; (+)) [Example 103, (+)-(2RS)-4,4-difluoro-N-{4-[(6R*)-3-(2-fluoroanilino)-5,6-dimethyl-4-oxo-4,5,6,7-tetrahydro-1H-pyrrolo[3,2-c]pyridin-2-yl]pyridin-2-yl}-2-(4-fluorophenyl)butanamide] as the compound, how does the IC50 (human CSNK1A1 [1]) read?
The IC50 was 0.268 µM.

And the IC50 (human CSNK1D)?
Its IC50 is 0.0173 µM.

What about the IC50 [2, 5] of the same compound?
Its IC50 is > 20 µM.

What about the IC50 (human CSNK1A1 [3]) of the same compound?
Its IC50 is 0.0128 µM.
